Experimental data as given in US9012489B2, “Phenyl-3-aza-bicyclo[3.1.0]hex-3-yl-methanones and the use thereof as medicament” (Boehringer Ingelheim International GmbH, priority 2011, dated 2015).
pIC50: −log10 of the molar value.

biological target: T1, GlyT1 transporter (Homo sapiens, UniProt P48067); assay: GlyT1 assay: 3H-glycine uptake into SK-N-MC cells (Cytostar-T format); assay type: cell-based; settings: glycine uptake in human SK-N-MC cells endogenously expressing GlyT1; 500 nM glycine, 1% DMSO, signal recorded over 60 min
T1 construct: endogenously expressing the GlyT1 transporter; host or cells: SK-N-MC human neuroblastoma cells
T1 sequence (P48067 1-706): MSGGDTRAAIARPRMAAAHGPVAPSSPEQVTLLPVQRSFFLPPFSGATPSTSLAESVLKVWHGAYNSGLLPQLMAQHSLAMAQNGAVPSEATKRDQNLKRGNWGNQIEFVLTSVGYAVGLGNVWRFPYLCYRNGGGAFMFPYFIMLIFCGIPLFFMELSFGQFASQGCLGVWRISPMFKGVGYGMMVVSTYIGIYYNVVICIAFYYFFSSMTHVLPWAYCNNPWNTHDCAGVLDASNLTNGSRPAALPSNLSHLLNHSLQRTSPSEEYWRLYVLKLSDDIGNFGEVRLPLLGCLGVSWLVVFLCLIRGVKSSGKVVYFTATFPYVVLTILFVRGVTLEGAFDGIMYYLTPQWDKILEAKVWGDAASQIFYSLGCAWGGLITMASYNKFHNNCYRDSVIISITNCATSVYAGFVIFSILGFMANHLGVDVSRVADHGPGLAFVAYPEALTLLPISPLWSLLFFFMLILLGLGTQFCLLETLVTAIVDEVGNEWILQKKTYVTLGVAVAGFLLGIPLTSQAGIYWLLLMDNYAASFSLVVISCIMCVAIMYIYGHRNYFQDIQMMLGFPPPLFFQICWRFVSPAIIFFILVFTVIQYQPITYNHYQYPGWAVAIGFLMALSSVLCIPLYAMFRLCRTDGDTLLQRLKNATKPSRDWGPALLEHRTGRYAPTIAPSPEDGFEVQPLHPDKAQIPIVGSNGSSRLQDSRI
In short: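 Endogenous GlyT1 in human SK-N-MC cells, confluent after 16-18 h, in HBSS with 5 mM alanine. Compounds preincubated about 5-10 min, then 500 nM glycine (half ³H) added, 1% DMSO. Scintillation-proximity uptake recorded kinetically over 60 min; IC50 from linear-range slopes over 8 concentrations, nonspecific uptake defined with 10 μM RG-1678.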

pIC50 | SMILES
7.00 | Cc1noc(C23CC2CN(C(=O)c2cc(S(C)(=O)=O)ccc2O[C@H](C)C(F)(F)F)C3)n1 (mixture of isomers) [Example 35, [5-Methanesulfonyl-2-(2,2,2-trifluoro-1-methyl-ethoxy)-phenyl]-[1-(3-methyl-[1,2,4]oxadiazol-5-yl)-3-aza-bicyclo[3.1.0]hex-3-yl]-methanone]
8.22 | Cc1nc(C23CC2CN(C(=O)c2cc(S(C)(=O)=O)ccc2O[C@H](C)C(F)(F)F)C3)no1 (single isomer, unassigned) [Example 42, [5-Methanesulfonyl-2-(2,2,2-trifluoro-1-methyl-ethoxy)-phenyl]-[1-(5-methyl-[1,2,4]oxadiazol-3-yl)-3-aza-bicyclo[3.1.0]hex-3-yl]-methanone]
6.43 | C[C@H](Oc1ccc(S(C)(=O)=O)cc1C(=O)N1CC2CC2(c2noc(C3CC(F)(F)C3)n2)C1)C(F)(F)F (single isomer, unassigned) [Example 60]
6.67 | C[C@@H](Oc1ccc(S(C)(=O)=O)cc1C(=O)N1CC2CC2(c2nc(C(F)(F)F)co2)C1)C(F)(F)F (mixture of isomers) [Example 113, [5-Methanesulfonyl-2-(2,2,2-trifluoro-1-methyl-ethoxy)-phenyl]-[1-(4-trifluoromethyl-oxazol-2-yl)-3-aza-bicyclo[3.1.0]hex-3-yl]-methanone]
6.63 | C[C@@H](Oc1ccc(S(C)(=O)=O)cc1C(=O)N1CC2CC2(c2nnc(C3(C(F)(F)F)CC3)o2)C1)C(F)(F)F (single isomer, unassigned) [Example 150, [5-Methanesulfonyl-2-(2,2,2-trifluoro-1-methyl-ethoxy)-phenyl]-{1-[5-(1-trifluoromethyl-cyclopropyl)-[1,3,4]oxadiazol-2-yl]-3-aza-bicyclo[3.1.0]hex-3-yl}-methanone]
5.58 | C[C@H](Oc1ccc(S(C)(=O)=O)cc1C(=O)N1CC2CC2(c2nnc(C(F)(F)F)o2)C1)C(F)(F)F (single isomer, unassigned) [Example 127, [5-Methanesulfonyl-2-(2,2,2-trifluoro-1-methyl-ethoxy)-phenyl]-[1-(5-trifluoromethyl-[1,3,4]oxadiazol-2-yl)-3-aza-bicyclo[3.1.0]hex-3-yl]-methanone]
6.83 | C[C@H](Oc1ccc(S(C)(=O)=O)cc1C(=O)N1CC2(C)CC2(c2noc(C(F)(F)F)n2)C1)C(F)(F)F (mixture of isomers) [Example 157, [5-Methanesulfonyl-2-(2,2,2-trifluoro-1-methyl-ethoxy)-phenyl]-[1-methyl-5-(5-trifluoromethyl-[1,2,4]oxadiazol-3-yl)-3-aza-bicyclo[3.1.0]hex-3-yl]-methanone]
6.77 | C[C@H](Oc1ccc(C#N)cc1C(=O)N1CC2CC2(c2noc(C(F)(F)F)n2)C1)C(F)(F)F (mixture of isomers) [Example 88, 4-(2,2,2-Trifluoro-1-methyl-ethoxy)-3-[1-(5-trifluoromethyl-[1,2,4]oxadiazol-3-yl)-3-aza-bicyclo[3.1.0]hexane-3-carbonyl]-benzonitrile]
7.14 | CC(C)Oc1ccc(S(C)(=O)=O)cc1C(=O)N1CC2CC2(c2nc(C3(C(F)(F)F)CC3)no2)C1 (racemic) [Example 154, (2-Isopropoxy-5-methanesulfonyl-phenyl)-{1-[3-(1-trifluoromethyl-cyclopropyl)-[1,2,4]oxadiazol-5-yl]-3-aza-bicyclo[3.1.0]hex-3-yl}-methanone]
7.74 | C[C@H](Oc1ccc(S(C)(=O)=O)cc1C(=O)N1CC2CC2(c2noc(C(F)(F)F)n2)C1)C(F)(F)F (single isomer, unassigned) [Example 2, [5-Methanesulfonyl-2-(2,2,2-trifluoro-1-methyl-ethoxy)-phenyl]-[1-(5-trifluoromethyl-[1,2,4]oxadiazol-3-yl)-3-aza-bicyclo[3.1.0]hex-3-yl]-methanone]
8.40 | Cc1nc(C23CC2CN(C(=O)c2cc(S(C)(=O)=O)ccc2O[C@@H](C)C(F)(F)F)C3)no1 (single isomer, unassigned) [Example 7, [5-Methanesulfonyl-2-(2,2,2-trifluoro-1-methyl-ethoxy)-phenyl]-[1-(5-methyl-[1,2,4]oxadiazol-3-yl)-3-aza-bicyclo[3.1.0]hex-3-yl]-methanone]
6.81 | C[C@@H](Oc1ccc(S(C)(=O)=O)cc1C(=O)N1CC2CC2(c2noc(C3(C(F)(F)F)CC3)n2)C1)C(F)(F)F (single isomer, unassigned) [Example 70, [5-Methanesulfonyl-2-(2,2,2-trifluoro-1-methyl-ethoxy)-phenyl]-{1-[5-(1-trifluoromethyl-cyclopropyl)-[1,2,4]oxadiazol-3-yl]-3-aza-bicyclo[3.1.0]hex-3-yl}-methanone]
6.92 | C[C@H](Oc1ccc(S(C)(=O)=O)cc1C(=O)N1CC2CC2(c2nc(C(F)(F)F)co2)C1)C(F)(F)F (single isomer, unassigned) [Example 136, [5-Methanesulfonyl-2-(2,2,2-trifluoro-1-methyl-ethoxy)-phenyl]-[1-(4-trifluoromethyl-oxazol-2-yl)-3-aza-bicyclo[3.1.0]hex-3-yl]-methanone]
6.45 | C[C@H](Oc1ccc(S(C)(=O)=O)cc1C(=O)N1CC2CC2(C2=NCC(C(F)(F)F)O2)C1)C(F)(F)F (mixture of isomers) [Example 57, [5-Methanesulfonyl-2-(2,2,2-trifluoro-1-methyl-ethoxy)-phenyl]-[1-(5-trifluoromethyl-4,5-dihydro-oxazol-2-yl)-3-aza-bicyclo[3.1.0]hexyl-3-yl]-methanone]
